From the supplement of paper PMC8617591

Tests used:
[1] = test system: Mycobacterium tuberculosis Erdman (autoluminescent); test: total FIC50 (Loewe) at 50% inhibition, three-drug combination (log2); higher = more antagonistic
Description: (§1)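 DiaMOND equipotent three-drug combination dose responses (10 doses, 1.5- or 2-fold spacing, centred on IC90) against autoluminescent M. tuberculosis Erdman in 8 in vitro models. Read-out is OD600, or luminescence for the intracellular and dormancy models, normalised to untreated wells. Hill-fit Einf, AUC25 and GRinf are potency metrics; FIC50 and FIC90 are total Loewe fractional inhibitory concentrations as log2 (negative = synergy).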

[2] = test system: Mycobacterium tuberculosis Erdman (autoluminescent); test: total FIC90 (Loewe) at 90% inhibition, three-drug combination (log2); higher = more antagonistic
Description: as §1

[3] = test system: Mycobacterium tuberculosis Erdman (autoluminescent); test: Einf, fitted maximum growth inhibition of three-drug combination (fraction); higher = stronger maximal inhibition
Description: as §1

[4] = test system: Mycobacterium tuberculosis Erdman (autoluminescent); test: AUC25, normalised area under dose response up to IC25 (three-drug combination) (fraction (0-1)); higher = more potent at low dose
Description: as §1

[5] = test system: Mycobacterium tuberculosis Erdman (autoluminescent); test: GRinf, maximum normalised growth rate inhibition (three-drug combination) (unitless (-1 to 1)); higher = less effect (negative = killing)
Description: as §1

COc1nc2ccc(Br)cc2cc1[C@@H](c1ccccc1)[C@@](O)(CCN(C)C)c1cccc2ccccc12 [bedaquiline] + NNC(=O)c1ccncc1 [isoniazid] + NC(=O)c1cnccn1 [pyrazinamide]
Conditions	AUC25, [4]	Einf, [3]	GRinf, [5]	total FIC50, [1]	total FIC90, [2]
in vitro model: acidic pH 5.7, time point: constant (~7 days, model-specific)	0.0904	0.873	-0.529	0.0123	–
in vitro model: acidic pH 5.7, time point: terminal (~4-5 doublings, model-specific)	0.0797	0.981	-0.413	0.0722	0.15
in vitro model: intracellular J774, time point: constant = terminal	–	0.987	-0.53	–	0.651

Conditions	AUC25, [4]	Einf, [3]	GRinf, [5]	total FIC50, [1]	total FIC90, [2]
in vitro model: butyrate, time point: constant (~7 days, model-specific)	0.0809	0.949	-0.109	0.406	0.726
in vitro model: butyrate, time point: terminal (~4-5 doublings, model-specific)	0.0598	0.978	-0.0731	0.373	0.404
in vitro model: cholesterol 0.05 mM, time point: constant (~7 days, model-specific)	0.103	0.726	-0.236	–	–
in vitro model: cholesterol 0.05 mM, time point: terminal (~4-5 doublings, model-specific)	0.102	0.935	-0.279	0.232	–
in vitro model: cholesterol-high 0.2 mM, time point: constant (~7 days, model-specific)	0.0921	0.995	-0.637	0.548	–
in vitro model: cholesterol-high 0.2 mM, time point: terminal (~4-5 doublings, model-specific)	0.068	1	-0.598	0.805	0.505
in vitro model: dormancy (butyrate + nitrate, low O2), time point: constant (~7 days, model-specific)	0.0789	0.922	0.125	-0.318	-0.645
in vitro model: dormancy (butyrate + nitrate, low O2), time point: terminal (~4-5 doublings, model-specific)	0.0524	0.992	-0.123	0.063	-0.625
in vitro model: standard 7H9 glycerol, time point: constant = terminal	0.0575	0.957	-0.0565	0.231	–
in vitro model: valerate, time point: constant (~7 days, model-specific)	0.0999	0.847	0.0396	0.527	–
in vitro model: valerate, time point: terminal (~4-5 doublings, model-specific)	0.0629	0.953	-0.0326	0.64	1.01

COc1nc2ccc(Br)cc2cc1[C@@H](c1ccccc1)[C@@](O)(CCN(C)C)c1cccc2ccccc12 [bedaquiline] + NNC(=O)c1ccncc1 [isoniazid] + O=[N+]([O-])c1cn2c(n1)OC[C@@H](OCc1ccc(OC(F)(F)F)cc1)C2 [pretomanid]
Conditions	AUC25, [4]	Einf, [3]	GRinf, [5]	total FIC50, [1]	total FIC90, [2]
in vitro model: acidic pH 5.7, time point: constant (~7 days, model-specific)	0.13	0.923	-0.789	0.219	–
in vitro model: acidic pH 5.7, time point: terminal (~4-5 doublings, model-specific)	0.108	0.988	-0.439	0.209	0.765
in vitro model: intracellular J774, time point: constant = terminal	–	0.996	-0.588	–	0.892

Conditions	AUC25, [4]	Einf, [3]	GRinf, [5]	total FIC50, [1]	total FIC90, [2]
in vitro model: butyrate, time point: constant (~7 days, model-specific)	0.0753	0.947	-0.112	1.04	1.16
in vitro model: butyrate, time point: terminal (~4-5 doublings, model-specific)	0.0523	0.975	-0.0872	0.897	0.889
in vitro model: cholesterol 0.05 mM, time point: constant (~7 days, model-specific)	0.0895	0.722	-0.21	0.775	–
in vitro model: cholesterol 0.05 mM, time point: terminal (~4-5 doublings, model-specific)	0.0672	0.924	-0.246	6.17	0.608
in vitro model: cholesterol-high 0.2 mM, time point: constant (~7 days, model-specific)	0.0717	0.887	-0.196	0.37	–
in vitro model: cholesterol-high 0.2 mM, time point: terminal (~4-5 doublings, model-specific)	0.0327	0.992	-0.535	0.584	0.0623
in vitro model: dormancy (butyrate + nitrate, low O2), time point: constant (~7 days, model-specific)	0.0674	0.924	0.224	-0.188	-0.985
in vitro model: dormancy (butyrate + nitrate, low O2), time point: terminal (~4-5 doublings, model-specific)	0.0671	0.994	-0.159	-0.769	-0.523
in vitro model: standard 7H9 glycerol, time point: constant = terminal	0.0757	0.966	-0.103	0.177	0.0648
in vitro model: valerate, time point: constant (~7 days, model-specific)	0.129	0.886	-0.333	0.632	1.13
in vitro model: valerate, time point: terminal (~4-5 doublings, model-specific)	0.109	0.953	-0.161	0.661	1.97

COc1nc2ccc(Br)cc2cc1[C@@H](c1ccccc1)[C@@](O)(CCN(C)C)c1cccc2ccccc12 [bedaquiline] + O=[N+]([O-])c1cn2c(n1)OC[C@@H](OCc1ccc(OC(F)(F)F)cc1)C2 [pretomanid] + CO[C@H]1/C=C/O[C@@]2(C)Oc3c(C)c(O)c4c(O)c(c(/C=N/N5CCN(C6CCCC6)CC5)c(O)c4c3C2=O)NC(=O)/C(C)=C\C=C\[C@H](C)[C@H](O)[C@@H](C)[C@@H](O)[C@@H](C)[C@H](OC(C)=O)[C@@H]1C [rifapentine]
Conditions	AUC25, [4]	Einf, [3]	GRinf, [5]	total FIC50, [1]	total FIC90, [2]
in vitro model: acidic pH 5.7, time point: constant (~7 days, model-specific)	0.116	0.943	-0.512	0.516	–
in vitro model: acidic pH 5.7, time point: terminal (~4-5 doublings, model-specific)	0.0913	0.987	-0.4	0.436	0.698
in vitro model: intracellular J774, time point: constant = terminal	–	0.985	-0.531	–	0.0139

Conditions	AUC25, [4]	Einf, [3]	GRinf, [5]	total FIC50, [1]	total FIC90, [2]
in vitro model: butyrate, time point: constant (~7 days, model-specific)	0.088	0.933	-0.0563	0.655	0.181
in vitro model: butyrate, time point: terminal (~4-5 doublings, model-specific)	0.0789	0.971	-0.0507	0.541	0.744
in vitro model: cholesterol 0.05 mM, time point: constant (~7 days, model-specific)	0.106	0.751	-0.236	0.454	–
in vitro model: cholesterol 0.05 mM, time point: terminal (~4-5 doublings, model-specific)	0.0678	0.929	-0.207	0.994	0.888
in vitro model: cholesterol-high 0.2 mM, time point: constant (~7 days, model-specific)	0.0733	0.918	-0.21	1.12	1.36
in vitro model: cholesterol-high 0.2 mM, time point: terminal (~4-5 doublings, model-specific)	0.0496	0.999	-0.642	1.19	0.947
in vitro model: dormancy (butyrate + nitrate, low O2), time point: constant (~7 days, model-specific)	0.0511	0.899	0.22	0.0544	-0.43
in vitro model: dormancy (butyrate + nitrate, low O2), time point: terminal (~4-5 doublings, model-specific)	0.032	0.983	-0.177	0.0788	-0.459
in vitro model: standard 7H9 glycerol, time point: constant = terminal	0.072	0.922	-0.0207	-0.0622	0.308
in vitro model: valerate, time point: constant (~7 days, model-specific)	0.0905	0.904	-0.217	1.07	–
in vitro model: valerate, time point: terminal (~4-5 doublings, model-specific)	0.0466	0.947	-0.0362	1.15	0.748
